These are literature values, as cited in patent US6239177A, “Tranilast-containing preparation for external application and method of producing the same” (Lead Chemical Co., Ltd., priority 1996, dated 2001).

For data set [1], the system named is carrageenan-induced granulation tissue. The settings on record: for drug concentration in the skin tissue: one hour after final administration, 60 min.
For data set [2], the system named is keloid and hypertrophic scar. The settings on record: Ichikawa 1992; Suzawa 1992.

Where two headings read alike, the source gives them in different places.

Turning to `COc1ccc(C=CC(=O)Nc2ccccc2C(=O)O)cc1OC` [tranilast, N-(3,4-dimethoxycinnamoyl)-anthranilic acid], the solubility in water entry was “extremely sparingly soluble”. Besides, in data set [1] (oral 50 mg/kg for consecutive 14 days), the “drug concentration in the skin tissue” value is 4.2 ± 0.4 µg/g. In data set [1] (oral 100 mg/kg for consecutive 14 days), the “drug concentration in the skin tissue” value is 10.3 ± 0.9 µg/g. Moreover, the “drug concentration in the skin tissue” value in data set [1] (oral 200 mg/kg for consecutive 14 days) was 23.17 ± 1.7 µg/g. The “inhibitory effect (carrageenan-induced granulation tissue)” value in data set [1] (oral 50, 100, and 200 mg/kg for consecutive 14 days) was “dose-dependent inhibitory effect was observed”. Where the note is “dimethyl formamide, pyridine, dioxane, acetone”, the “solubility in dimethyl formamide, pyridine, dioxane, and acetone” value was “soluble”. The “solubility in a kind of fatty acid and its ester, animal and vegetable oils and fats, terpene compounds, and alcohols” value (fatty acids/esters, oils and fats, terpenes, alcohols) is “can be solved to some extent”. Moreover, for the setting “methanol, ethanol, ethyl acetate”, the “solubility in methanol, ethanol, ethyl acetate” value was “hardly soluble”. The solubility in water result (listed as Tranilast) is reported as “sparingly soluble”. Besides, the “pharmaceutical effect on keloid and hypertrophic scar” value in data set [2] is “excellent pharmaceutical effect”.
